pIC50: −log10 of the molar value. Structures can show the parent of a compound that is named as a salt.
Assays:
Assay type in all cases: biochemical
[1] = target: T1, Cathepsin C (Sigma, C8511) (Bos taurus, UniProt Q3ZCJ8); assay: Selectivity study: cathepsin C (Gly-Phe-pNA); settings: 1 hour at 37° C., read-out: Cathepsins (IC50, nM) C
T1 construct: purchased Sigma C8511
Procedure: (§1) Test 2: Selectivity Study
(§2) Selectivity study for the compounds of the present invention was performed using cathepsin C (Sigma, C8511), cathepsin G (Calbiochem, 219373), cathepsin H (Calbiochem, 219388), cathepsin L (Calbiochem, 219402), and cathepsin S (Eur. J. Biochem. 236, 558 (1996) as enzyme sources.
(§3) Cathepsin C (Sigma, C8511) was dissolved in D.W. buffer (pH 5.5). All inhibitors were prepared in dimethyl sulfoxide (DMSO). In vitro assays for cathepsin C were conducted with Gly-Phe-pNA (Sigma, G-0142) as a substrate. Samples were pre-incubated for 10 minutes at 37° C. Reaction was initiated by the addition of enzyme to samples, which were then incubated for 1 hour at 37° C. The absorbance of p-nitroaniline released was monitored at 405 nm using spectrophotometer.
(§4) The concentrations of the test compounds, which inhibit 50% of cathepsin s C, G, H, L and S activity, are represented as IC50 in Table 2.

[2] = target: T2, Cathepsin G (Calbiochem, 219373) (Homo sapiens, UniProt P08311); assay: Selectivity study: cathepsin G (Suc-Ala-Ala-Pro-Phe-pNA); settings: 1 hour at 25° C., read-out: Cathepsins (IC50, nM) G
T2 construct: purchased Calbiochem 219373
T2 sequence (P08311 21-244): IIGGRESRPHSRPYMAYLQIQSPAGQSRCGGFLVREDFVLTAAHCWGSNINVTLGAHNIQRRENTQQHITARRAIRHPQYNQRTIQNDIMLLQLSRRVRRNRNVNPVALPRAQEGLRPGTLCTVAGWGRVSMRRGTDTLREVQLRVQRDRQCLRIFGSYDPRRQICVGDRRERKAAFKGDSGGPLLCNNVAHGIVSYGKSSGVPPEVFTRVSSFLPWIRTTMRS
Procedure: as §1, §2
as §3, with “Cathepsin G (Calbiochem, 219373)” for “Cathepsin C (Sigma, C8511)”, “in 50 mM NaOAc and 150 mM NaCl” for “in D.W.”, “cathepsin G” for “cathepsin C”, “with Suc-Ala-Ala-Pro-Phe-pNA (Calbiochem, 219407)” for “with Gly-Phe-pNA (Sigma, G-0142)”, “at 25°” for “at 37°”
as §4

[3] = target: T3, Cathepsin H (Calbiochem, 219388) (Homo sapiens, UniProt P09668); assay: Selectivity study: cathepsin H (L-Arg-pNA); settings: 1 hour at 40° C., read-out: Cathepsins (IC50, nM) H
T3 construct: purchased Calbiochem 219388
T3 sequence (P09668 98-335): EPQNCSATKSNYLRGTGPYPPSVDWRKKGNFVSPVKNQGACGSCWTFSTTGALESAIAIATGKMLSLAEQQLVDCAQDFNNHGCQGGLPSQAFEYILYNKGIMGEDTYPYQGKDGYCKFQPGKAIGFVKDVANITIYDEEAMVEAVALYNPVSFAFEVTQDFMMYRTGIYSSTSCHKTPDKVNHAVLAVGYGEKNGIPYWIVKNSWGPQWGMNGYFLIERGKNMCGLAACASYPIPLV
Procedure: as §1, §2
Cathepsin H (Calbiochem, 219388) was dissolved in 20 mM NaOAc, 1 mM EDTA-2Na and 100 mM NaCl buffer (pH 4.6). All inhibitors were prepared dimethyl sulfoxide (DMSO). In vitro assays for cathepsin H were conducted with L-Arg-pNA (BACHEM, 1-1160) as a substrate. Samples were pre-incubated for 5 minutes at 40° C. Reaction was initiated by the addition of enzyme to samples, which were then incubated for 1 hour at 40° C. The absorbance of p-nitroaniline released was monitored at 405 nm using spectrophotometer.
as §4

[4] = target: T4, Cathepsin L (Calbiochem, 219402) (Homo sapiens, UniProt P07711); assay: Selectivity study: cathepsin L (Z-Phe-Arg-AMC); settings: 1 hour at 25° C., read-out: Cathepsins (IC50, nM) L
T4 construct: purchased Calbiochem 219402
Procedure: as §1, §2
Cathepsin L (Calbiochem, 219402) was dissolved in 50 mM NaOAc buffer (pH 5.0). All inhibitors were prepared in dimethyl sulfoxide (DMSO). […] Samples were pre-incubated for 5 minutes at 25° C. Reaction was initiated by the addition of enzyme to samples, which were then incubated for 1 hour at 25° C. The fluorescence of AMC (7-amino-4-methylcoumarin) was monitored at 460 nm (excitation wavelength 360 nm), using fluorescence spectrophotometer.
as §4

[5] = target: Recombinant human Cathepsin S (Homo sapiens, UniProt P25774); assay: Selectivity study: cathepsin S (Z-Val-Val-AMC); settings: 30 minutes at 37° C., read-out: Cathepsins (IC50, nM) S
Procedure: as §1, §2
Recombinant human Cathepsin S (Eur. J. Biochem. 236, 558 (1996) was dissolved in 0.1 M NaOAc 1 mM EDTA-4Na buffer (pH 5.5). All inhibitors were prepared in dimethyl sulfoxide (DMSO). In vitro assays for cathepsin S were conducted with Z-Val-Val-AMC (BACHEM, 1-1160) as a substrate. Samples were pre-incubated for 10 minutes at 4° C. Reaction was initiated by the addition of enzyme to samples, which were then incubated for 30 minutes at 37° C. The florescence of AMC (7-amino-4-methylcoumarin) released was monitored at 465 nm (excitation wavelength 360 nm), using fluorescence spectrophotometer.
as §4

[6] = target: T5, Recombinant human cathepsin K (Homo sapiens, UniProt P43235); assay: Inhibition of cathepsin K activity (Z-Phe-Arg-AMC fluorescence assay); settings: 25 uM Z-Phe-Arg-AMC, pH 5.5, 1 hour at 37° C.
T5 construct: made in house
T5 sequence (P43235 115-329): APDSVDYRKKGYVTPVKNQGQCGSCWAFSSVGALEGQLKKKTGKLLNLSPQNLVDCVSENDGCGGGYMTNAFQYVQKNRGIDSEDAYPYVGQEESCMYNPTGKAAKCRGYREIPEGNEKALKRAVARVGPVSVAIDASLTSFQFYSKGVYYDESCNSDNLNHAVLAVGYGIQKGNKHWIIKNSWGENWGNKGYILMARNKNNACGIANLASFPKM
Method in brief: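 Z-Phe-Arg-AMC at 25 uM in 100 mM Na acetate pH 5.5 with 20 mM cysteine, 5 mM EDTA and 2% final DMSO; reaction started by adding enzyme, then 1 hour at 37° C. Fluorescence read at ex 360/em 460 nm; IC50 is the concentration giving 50% inhibition.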

Sequence of Recombinant human Cathepsin S (P25774 115-331): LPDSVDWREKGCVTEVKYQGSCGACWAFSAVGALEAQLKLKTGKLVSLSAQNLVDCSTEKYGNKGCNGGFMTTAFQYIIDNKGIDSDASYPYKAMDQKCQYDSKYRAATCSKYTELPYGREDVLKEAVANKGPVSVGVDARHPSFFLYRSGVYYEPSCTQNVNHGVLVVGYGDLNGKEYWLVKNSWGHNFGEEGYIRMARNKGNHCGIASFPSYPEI
T4 sequence (P07711 114-333): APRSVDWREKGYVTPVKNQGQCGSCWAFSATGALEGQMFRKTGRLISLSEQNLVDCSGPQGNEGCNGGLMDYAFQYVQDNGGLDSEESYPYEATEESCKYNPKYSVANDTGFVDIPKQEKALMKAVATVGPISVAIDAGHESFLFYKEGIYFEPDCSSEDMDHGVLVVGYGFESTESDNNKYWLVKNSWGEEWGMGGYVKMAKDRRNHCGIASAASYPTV
T1 sequence (Q3ZCJ8 25-463): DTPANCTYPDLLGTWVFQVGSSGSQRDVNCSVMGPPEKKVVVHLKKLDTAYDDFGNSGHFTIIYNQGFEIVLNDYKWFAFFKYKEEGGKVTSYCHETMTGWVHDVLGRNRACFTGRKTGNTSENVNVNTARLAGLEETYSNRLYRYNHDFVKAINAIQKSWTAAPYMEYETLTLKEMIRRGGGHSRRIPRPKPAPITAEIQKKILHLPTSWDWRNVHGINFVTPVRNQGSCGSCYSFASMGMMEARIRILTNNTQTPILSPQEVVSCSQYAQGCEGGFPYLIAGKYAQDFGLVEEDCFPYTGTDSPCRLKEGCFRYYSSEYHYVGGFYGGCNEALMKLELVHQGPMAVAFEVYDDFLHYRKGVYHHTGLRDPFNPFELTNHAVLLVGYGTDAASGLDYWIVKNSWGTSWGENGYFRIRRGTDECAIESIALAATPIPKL

Compound	IC50 [1]	IC50 [2]	IC50 [3]	IC50 [4]	IC50 [5]	pIC50 [6]
O=C(NC1(C(=O)NC2CCN(c3ccccc3N3CC=CC3)CC2=O)CCCCC1)c1cc2ccccc2o1 (stereo not shown) [Example 57]	> 1000 nM	> 1000 nM	> 1000 nM	285 nM	731 nM	–
CC(C)S(=O)(=O)c1ccccc1N1CCC(NC(=O)C2(NC(=O)c3ccco3)CCCCC2)C(=O)C1 (stereo not shown) [Example 80, 4-[N-[1-[N-(furan-2-ylcarbonyl)amino]cyclohexanecarbonyl]amino]-1-(2-isopropylsulfonylphenyl)piperidin-3-one]	> 1000 nM	> 1000 nM	> 1000 nM	381 nM	109 nM	8.30
CN(C)C(=O)c1ccccc1N1CCC(NC(=O)C2(NC(=O)c3cc4ccccc4o3)CCCCC2)C(=O)C1 (stereo not shown) [Example 61, 4-[N-[1-[N-(benzofuran-2-ylcarbonyl)amino]cyclohexanecarbonyl]amino]-1-[2-(N,N-dimethylcarbamoyl)phenyl]piperidin-3-one]	> 1000 nM	> 1000 nM	> 1000 nM	> 300 nM	> 300 nM	–
COc1ccc(N2CCC(NC(=O)C3(NC(=O)c4ccco4)CCCCC3)C(=O)C2)c(S(C)(=O)=O)c1 (stereo not shown) [Example 84, 4-[N-[1-[N-(furan-2-ylcarbonyl)amino]cyclohexanecarbonyl]amino]-1-(4-methoxy-2-methylsulfonylphenyl)piperidin-3-one]	> 1000 nM	> 1000 nM	> 1000 nM	986 nM	212 nM	8.20
CNC(=O)c1ccccc1N1CCC(NC(=O)C2(NC(=O)c3cc4ccccc4o3)CCCCC2)C(=O)C1 (stereo not shown) [Example 62, 4-[N-[1-[N-(benzofuran-2-ylcarbonyl)amino]cyclohexanecarbonyl]amino]-1-[2-(N-methylcarbamoyl)phenyl]piperidin-3-one]	> 1000 nM	> 1000 nM	> 1000 nM	> 450 nM	> 450 nM	–
O=C(NC1(C(=O)NC2CCN(c3ccccc3-n3cccc3)CC2=O)CCCCC1)c1cc2ccccc2o1 (stereo not shown) [Example 60, 4-[N-[1-[N-(benzofuran-2-ylcarbonyl)amino]cyclohexanecarbonyl]amino]-1-[2-(pyrrol-1-yl)phenyl]piperidin-3-one]	> 1000 nM	> 1000 nM	> 1000 nM	103 nM	> 150 nM	–
CS(=O)(=O)c1ccccc1N1CCC(NC(=O)C2(NC(=O)c3ccco3)CCCCC2)C(=O)C1 (stereo not shown) [Example 76, 4-[N-[1-[N-(furan-2-ylcarbonyl)amino]cyclohexanecarbonyl]amino]-1-(2-methanesulfonylphenyl)piperidin-3-one]	> 2460 nM	> 2460 nM	> 2460 nM	971 nM	204 nM	8.09
O=C(NC1(C(=O)NC2CCN(c3ccccc3N3CCCC3=O)CC2=O)CCCCC1)c1cc2ccccc2o1 (stereo not shown) [Example 44, 4-[N-[1-[N-(benzofuran-2-ylcarbonyl)amino]cyclohexanecarbonyl]amino]-1-[2-(pyrrolidin-2-one-1-yl)phenyl]piperidin-3-one]	394 nM	> 690 nM	> 690 nM	574 nM	460 nM	8.30
CS(=O)(=O)c1cc(F)ccc1N1CCC(NC(=O)C2(NC(=O)c3ccco3)CCCCC2)C(=O)C1 (stereo not shown) [Example 83, 4-[N-[1-[N-(furan-2-ylcarbonyl)amino]cyclohexanecarbonyl]amino]-1-(4-fluoro-2-methylsulfonylphenyl)piperidin-3-one]	> 810 nM	> 810 nM	> 810 nM	352 nM	177 nM	8.57
O=C(NC1(C(=O)NC2CCN(c3ccc(F)cc3N3CCC3=O)CC2=O)CCCCC1)c1ccco1 (stereo not shown) [Example 94, 4-[N-[1-[N-(furan-2-ylcarbonyl)amino]cyclohexanecarbonyl]amino]-1-[4-fluoro-2-(azetidin-2-one-1-yl)phenyl]piperidin-3-one]	> 1000 nM	> 1000 nM	> 1000 nM	1450 nM	197 nM	–
O=C(NC1(C(=O)NC2CCN(c3ccccc3N3CCCS3(=O)=O)CC2=O)CCCCC1)c1cc2ccccc2o1 (stereo not shown) [Example 75]	> 1000 nM	> 1000 nM	> 1000 nM	32.5 nM	> 150 nM	9.29
CS(=O)(=O)c1cc(F)ccc1N1CCC(NC(=O)C2(NC(=O)c3ccc(F)cc3)CCCCC2)C(=O)C1 (stereo not shown) [Example 147, 4-[N-[1-[N-(4-fluorobenzoyl)amino]cyclohexanecarbonyl]amino]-1-(4-fluoro-2-methanesulfonylphenyl)piperidin-3-one]	> 1000 nM	> 1000 nM	> 1000 nM	249 nM	214 nM	8.32
CS(=O)(=O)c1ccccc1N1CCC(NC(=O)C2(NC(=O)c3cc4cc(OCCN5CCCCC5)ccc4o3)CCCCC2)C(=O)C1 (stereo not shown) [Example 166, 4-[N-[1-[N-(5-(2-piperidinethoxy)benzofuran-2-ylcarbonyl)amino]cyclohexanecarbonyl]amino]-1-(2-methanesulfonylphenyl)piperidin-3-one hydrochloride]	–	–	–	–	–	9.15
Cc1c(C(=O)NC2(C(=O)NC3CCN(c4ccccc4S(C)(=O)=O)CC3=O)CCCCC2)oc2ccccc12 (stereo not shown) [Example 133, 4-[N-[1-[N-(3-methyl-benzofuran-2-ylcarbonyl)amino]cyclohexanecarbonyl]amino]-1-(2-methanesulfonylphenyl)piperidin-3-one]	–	–	–	–	–	8.91
CN(C)c1ccc(C(=O)NC2(C(=O)NC3CCN(c4ccc(F)cc4S(C)(=O)=O)CC3=O)CCCCC2)cc1 (stereo not shown) [Example 171, 4-[N-[1-[N-(4-(dimethylamino)benzoyl)amino]cyclohexanecarbonyl]amino]-1-(4-fluoro-2-methanesulfonylphenyl)piperidin-3-one]	–	–	–	–	–	9.11
